What was measured:
[1] = test system: MAC16 tumour-bearing mice; assay: Body weight, food and water intake in MAC16 tumour-bearing mice treated with lipid soluble alpha-trinositol (Example 5); type: in vivo, NMRI mice; settings: for weight loss compared to the control group: 5 days
Description: Materials. Lipid soluble alpha trinositol (1-D-tri-O-hexanoyl-myo-inositol 1,2,6-triphosphate) was formed by further esterification of 1-D-Myo-inositol 1,2,6-triphosphate.
(§1) Animals. Pure strain male NMRI mice (average body weight 25 g) were transplanted with fragments of the MAC16 tumour subcutaneously into the flank by means of a trochar, selected from donor animals with established weight loss (Bibby M C et al., Characterization of transplantable adenocarcinoma in the mouse colon producing cachexia in the recipient animals. J Natl Cancer Inst 78 (1987) 539-546). Transplanted animals were given a rat and mouse breeding diet (Special Diet Services, Witham, UK) and water at lib. Weight loss was evident 10 to 12 days after tumour implantation. Just prior to the development of weight loss […] were randomized into three groups of six animals each.
(§2) Administration of alpha-trinositol. A first experiment was started when the animals had lost about 5% of body weight. Aliquots of lipid soluble alpha-trinositol stock solution corresponding to doses of 6 mg/kg body weight and 8 mg/kg body weight for a 25 g animal were administered subcutaneously three times per day at 8.00, 12.00 and 16.00 hrs. The third group (control) was given an intravenous injection of 10 μl of PBS. Body weight (FIG. 26), tumour volume, and food (FIG. 27) and water (FIG. 28) intake were determined daily (for 5 days) after the last injection. Day 0 is the day of transplant and day 1 is the start of the experiment. The experiment was terminated on day 5 due to loss of controls.

MAC16 tumour = assay: Tumour volume in MAC16 tumour-bearing mice treated with lipid soluble alpha-trinositol (Example 5); type: in vivo, NMRI mice; settings: 6 mg/kg and 8 mg/kg groups versus control
Description: as §1, §2

CCCCCC(=O)O[C@@H]1[C@@H](OC(=O)CCCCC)[C@@H](OP(=O)(O)O)[C@@H](OP(=O)(O)O)[C@H](OP(=O)(O)O)[C@H]1OC(=O)CCCCC [lipid soluble alpha trinositol, 1-D-tri-O-hexanoyl-myo-inositol 1,2,6-triphosphate]
weight loss compared to the control group ([1]; 6 mg/kg s.c. three times per day): significantly lower weight loss
weight loss compared to the control group ([1]; 8 mg/kg s.c. three times per day): significantly lower weight loss
average weight loss in 5 days ([1]; highest concentration (8 mg/kg), control about 6 g): about 3 g
increase in tumour volume (MAC16 tumour): slightly higher in the control group

Source: US20100261682A1, “Method and Means for the Treatment of Cachexia” (Bioneris AB, priority 2007, published 2010)
